Laboratory results: patent US9247759B2, “Identification of human T2R receptors that respond to bitter compounds that elicit the bitter taste in compositions, and the use thereof in assays to identify compounds that inhibit (block) bitter taste in compositions and use thereof” (SENOMYX, INC., priority 2007, dated 2016)
Like-named read-outs stand apart in the source and are kept apart here.

Columns and labels:
hT2R61 = hT2R61 (Homo sapiens (Human), UniProt P59537); experiment: hT2R panel inhibition, transient HEK293 G16g44, agonist Aristolochic Acid 25 nM; format: cell-based; details: HEK293, compound at 25 μM; receptor activated to EC80 with the corresponding agonist; read-out: screening result against bitter receptor 61
Outline: (§1)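 Receptor activity was measured in functional assays after single-receptor transient transfection; bitter agonists were used at their EC80 levels. A decrease in that activity when the test compound was added was taken as inhibition.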

hT2R63 = experiment: hT2R panel inhibition, transient HEK293 G16g44, agonist Caffeine 1 mM or Andrographolide 100 μM; format: cell-based, human; details: compound at 25 μM; receptor activated to EC80 with the corresponding agonist
Outline: as §1

hT2R14 [1] = biological target: T1, hT2R14 (Homo sapiens (Human), UniProt Q9NYV8); experiment: hT2R14 antagonist high-throughput FLIPR assay, stable cell line with G16g44, agonist aristolochic acid; format: cell-based
Outline: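 HEK293 cells stably expressing hT2R14 with chimeric G16g44 were stimulated with aristolochic acid (3 μM), giving 70-80% of maximal receptor activity. Test compounds were added together with the agonist, and antagonism was read as fluorescent calcium signal on FLIPR.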

hT2R4 = hT2R4 (Homo sapiens (Human), UniProt Q9NYW5); experiment: hT2R panel inhibition, transient HEK293 G16g44, agonist Chloroquine pH6.5 5 mM; format: cell-based; details: HEK293, compound at 25 μM; receptor activated to EC80 with the corresponding agonist; class symbols; read-out: screening result against bitter receptor 4
Outline: as §1

hT2R65 = experiment: hT2R panel inhibition, transient HEK293 G16g44, agonist Oleuropein 1 mM; format: cell-based, human; details: compound at 25 μM; receptor activated to EC80 with the corresponding agonist
Outline: as §1

hT2R64 = hT2R64 (Homo sapiens (Human), UniProt P59538); experiment: hT2R panel inhibition, transient HEK293 G16g44, agonist Aristolochic Acid 1 μM; format: cell-based; details: HEK293, compound at 25 μM; receptor activated to EC80 with the corresponding agonist; read-out: screening result against bitter receptor 64
Outline: as §1

hT2R5 = hT2R5 (Homo sapiens (Human), UniProt Q9NYW4); experiment: hT2R panel inhibition, transient HEK293 G16g44, agonist Picoline 10 mM; format: cell-based; details: HEK293, compound at 25 μM; receptor activated to EC80 with the corresponding agonist; read-out: screening result against bitter receptor 5
Outline: as §1

hT2R14 [2] = biological target: T1, hT2R14; experiment: hT2R panel inhibition, transient HEK293 G16g44, agonist Aristolochic Acid 2 μM; format: cell-based; details: HEK293, compound at 25 μM; receptor activated to EC80 with the corresponding agonist; read-out: screening result against bitter receptor 14
Outline: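 Each hT2R was transiently transfected into HEK293 cells stably expressing G16g44 and assayed functionally for inhibition of agonist response. Agonists were applied at EC80: andrographolide at 0.5 mM for hT2R8 and aristolochic acid at 2 μM for hT2R14.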

hT2R75 = hT2R75 (Homo sapiens (Human), UniProt P59540); experiment: hT2R panel inhibition, transient HEK293 G16g44, agonist Strychnine 1 μM; format: cell-based; details: HEK293, read-out: screening result against bitter receptor 75, compound at 25 μM; receptor activated to EC80 with the corresponding agonist
hT2R7 = hT2R7 (Homo sapiens (Human), UniProt Q9NYW3); experiment: hT2R panel inhibition, transient HEK293 G16g44, agonist Chloroquine pH6.5 10 mM; format: cell-based; details: HEK293, compound at 25 μM; receptor activated to EC80 with the corresponding agonist; read-out: screening result against bitter receptor 7
Outline: as §1

hT2R16 = hT2R16 (Homo sapiens (Human), UniProt Q9NYV7); experiment: hT2R panel inhibition, transient HEK293 G16g44, agonist Salicin 1 mM; format: cell-based; details: HEK293, compound at 25 μM; receptor activated to EC80 with the corresponding agonist; read-out: screening result against bitter receptor 16
Outline: as §1

hT2R55 = experiment: hT2R panel inhibition, transient HEK293 G16g44, agonist Cinchonine 150 μM; format: cell-based, human; details: compound at 25 μM; receptor activated to EC80 with the corresponding agonist
Outline: as §1

hT2R9 = hT2R9 (Homo sapiens (Human), UniProt Q9NYW1); experiment: hT2R panel inhibition, transient HEK293 G16g44, agonist Ofloxacin 1 mM; format: cell-based; details: HEK293, compound at 25 μM; receptor activated to EC80 with the corresponding agonist; read-out: screening result against bitter receptor 9
Method: Specifically, in order to evaluate the inhibitory selectivity of the Compound C compound, this compound was tested against 22 human T2Rs which were deorphaned by Senomyx. These receptors and the bitter ligands that activate these human T2Rs are reported in earlier patent applications which are incorporated by reference herein. These 22 human T2Rs are hT2R1, 3, 4, 5, 7, 8, 9, 10, 13, 14, 16, 44, 51, 54, 55, 61, 63, 64, 65, 67, 71 and 75. The amino acid and nucleic acid sequences of all of these T2Rs may be found in these earlier patent applications. These human T2Rs were each individually transiently transfected into HEK293 cells that stably express the promiscuous G protein G16g44 and functional assays were effected using these receptors as disclosed in these same patent applications. […] The ligands were used at EC80 concentration levels. The list of bitter ligands utilized and the tested ligand concentrations are contained in Table 5 of this example.
Relating to the foregoing, FIG. 5 contains experimental results wherein Compound C was tested with different agonist compounds. The inhibition activity is represented by the reduction of receptor activity in the presence of Compound C. […] These 13 hT2Rs are hT2R3, 7, 10, 14, 16, 44, 51, 55, 61, 63, 64, 65, and 71.

hT2R3 = hT2R3 (Homo sapiens (Human), UniProt Q9NYW6); experiment: hT2R panel inhibition, transient HEK293 G16g44, agonist Chloroquine pH6.5 50 μM; format: cell-based; details: HEK293, compound at 25 μM; receptor activated to EC80 with the corresponding agonist; read-out: screening result against bitter receptor 3
Outline: as §1

hT2R10 = hT2R10 (Homo sapiens (Human), UniProt Q9NYW0); experiment: hT2R panel inhibition, transient HEK293 G16g44, agonist Strychnine 50 μM; format: cell-based; details: HEK293, read-out: screening result against bitter receptor 10, compound at 25 μM; receptor activated to EC80 with the corresponding agonist
hT2R71 = hT2R71 (Homo sapiens (Human), UniProt P59536); experiment: hT2R panel inhibition, transient HEK293 G16g44, agonist Picric Acid 10 μM; format: cell-based; details: HEK293, compound at 25 μM; receptor activated to EC80 with the corresponding agonist; read-out: screening result against bitter receptor 71
Outline: as §1

hT2R44 = experiment: hT2R panel inhibition, transient HEK293 G16g44, agonist Denatonium 0.5 μM; format: cell-based, human; details: compound at 25 μM; receptor activated to EC80 with the corresponding agonist
Outline: as §1

hT2R54 = experiment: hT2R panel inhibition, transient HEK293 G16g44, agonist Ranitidine 5 mM; format: cell-based, human; details: compound at 25 μM; receptor activated to EC80 with the corresponding agonist
Outline: as §1

hT2R51 = hT2R51 (Homo sapiens (Human), UniProt P59533); experiment: hT2R panel inhibition, transient HEK293 G16g44, agonist Prop 2.5 μM; format: cell-based; details: HEK293, compound at 25 μM; receptor activated to EC80 with the corresponding agonist; read-out: screening result against bitter receptor 51
Outline: as §1

hT2R67 = experiment: hT2R panel inhibition, transient HEK293 G16g44, agonist Andrographolide 5 μM; format: cell-based, human; details: compound at 25 μM; receptor activated to EC80 with the corresponding agonist
Outline: as §1

Sequence of hT2R3 (Q9NYW6 whole entry): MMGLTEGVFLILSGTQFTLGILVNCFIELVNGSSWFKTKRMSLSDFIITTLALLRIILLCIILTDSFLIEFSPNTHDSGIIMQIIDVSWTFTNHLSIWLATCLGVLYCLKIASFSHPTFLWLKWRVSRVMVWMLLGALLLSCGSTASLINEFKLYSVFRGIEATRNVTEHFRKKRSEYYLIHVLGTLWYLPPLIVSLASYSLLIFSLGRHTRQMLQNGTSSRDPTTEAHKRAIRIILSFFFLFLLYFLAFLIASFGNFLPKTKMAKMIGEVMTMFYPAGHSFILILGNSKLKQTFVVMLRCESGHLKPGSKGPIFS
Sequence of hT2R7 (Q9NYW3 whole entry): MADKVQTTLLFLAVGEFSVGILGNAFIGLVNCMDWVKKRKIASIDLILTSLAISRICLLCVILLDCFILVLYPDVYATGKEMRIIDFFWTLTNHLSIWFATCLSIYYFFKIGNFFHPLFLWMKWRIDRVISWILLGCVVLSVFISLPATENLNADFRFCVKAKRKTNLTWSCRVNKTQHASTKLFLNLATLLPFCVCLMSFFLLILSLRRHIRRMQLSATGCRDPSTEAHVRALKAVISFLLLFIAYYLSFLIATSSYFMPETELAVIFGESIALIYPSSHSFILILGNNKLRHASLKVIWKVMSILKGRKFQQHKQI
Sequence of hT2R5 (Q9NYW4 whole entry): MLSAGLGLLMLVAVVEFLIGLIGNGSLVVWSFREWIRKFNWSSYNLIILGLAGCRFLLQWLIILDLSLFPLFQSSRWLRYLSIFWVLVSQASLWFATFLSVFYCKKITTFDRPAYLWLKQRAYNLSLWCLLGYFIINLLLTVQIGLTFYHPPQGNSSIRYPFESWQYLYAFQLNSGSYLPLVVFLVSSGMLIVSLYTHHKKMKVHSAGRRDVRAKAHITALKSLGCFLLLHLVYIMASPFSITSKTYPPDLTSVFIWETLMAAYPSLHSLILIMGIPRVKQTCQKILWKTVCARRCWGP
Sequence of hT2R10 (Q9NYW0 whole entry): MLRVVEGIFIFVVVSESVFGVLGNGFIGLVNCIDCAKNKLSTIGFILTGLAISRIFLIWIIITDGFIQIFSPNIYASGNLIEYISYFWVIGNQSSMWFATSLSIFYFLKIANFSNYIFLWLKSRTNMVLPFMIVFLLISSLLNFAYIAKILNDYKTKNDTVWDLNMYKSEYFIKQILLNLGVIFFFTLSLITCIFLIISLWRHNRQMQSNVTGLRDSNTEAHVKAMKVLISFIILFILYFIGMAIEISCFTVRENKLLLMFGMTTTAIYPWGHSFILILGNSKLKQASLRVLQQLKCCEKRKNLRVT
Sequence of hT2R9 (Q9NYW1 whole entry): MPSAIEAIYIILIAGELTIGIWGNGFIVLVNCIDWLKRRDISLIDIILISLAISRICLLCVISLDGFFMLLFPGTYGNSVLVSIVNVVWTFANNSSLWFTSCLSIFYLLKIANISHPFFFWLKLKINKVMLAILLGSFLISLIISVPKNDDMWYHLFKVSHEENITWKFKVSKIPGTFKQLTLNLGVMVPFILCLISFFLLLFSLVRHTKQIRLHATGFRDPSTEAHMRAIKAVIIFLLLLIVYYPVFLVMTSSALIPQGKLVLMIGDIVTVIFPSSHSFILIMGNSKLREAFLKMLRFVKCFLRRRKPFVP
Sequence of hT2R16 (Q9NYV7 whole entry): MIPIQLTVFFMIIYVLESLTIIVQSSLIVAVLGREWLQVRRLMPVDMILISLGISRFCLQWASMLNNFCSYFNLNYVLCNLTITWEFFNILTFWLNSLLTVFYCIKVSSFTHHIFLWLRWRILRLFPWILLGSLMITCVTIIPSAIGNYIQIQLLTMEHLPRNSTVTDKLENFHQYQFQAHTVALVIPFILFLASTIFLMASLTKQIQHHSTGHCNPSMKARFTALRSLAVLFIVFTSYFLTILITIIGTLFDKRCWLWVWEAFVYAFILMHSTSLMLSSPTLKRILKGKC
T1 sequence (Q9NYV8 whole entry): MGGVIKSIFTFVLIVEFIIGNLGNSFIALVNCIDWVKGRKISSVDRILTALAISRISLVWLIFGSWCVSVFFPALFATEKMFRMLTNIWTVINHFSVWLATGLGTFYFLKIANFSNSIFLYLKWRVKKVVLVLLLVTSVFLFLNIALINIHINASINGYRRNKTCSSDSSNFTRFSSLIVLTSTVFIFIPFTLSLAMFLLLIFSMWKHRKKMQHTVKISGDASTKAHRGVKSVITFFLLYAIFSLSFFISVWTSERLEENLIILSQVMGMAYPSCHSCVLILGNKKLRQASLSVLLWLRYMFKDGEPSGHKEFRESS
Sequence of hT2R71 (P59536 whole entry): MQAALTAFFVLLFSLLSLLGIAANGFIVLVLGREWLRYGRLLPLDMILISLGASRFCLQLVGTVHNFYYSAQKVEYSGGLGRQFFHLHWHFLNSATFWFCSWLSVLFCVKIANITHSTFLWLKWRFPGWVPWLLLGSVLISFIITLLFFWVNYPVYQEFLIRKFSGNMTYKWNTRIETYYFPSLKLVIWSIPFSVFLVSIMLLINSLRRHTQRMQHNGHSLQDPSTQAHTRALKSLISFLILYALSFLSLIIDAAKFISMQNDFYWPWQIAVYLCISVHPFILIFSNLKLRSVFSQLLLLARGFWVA
Sequence of hT2R4 (Q9NYW5 whole entry): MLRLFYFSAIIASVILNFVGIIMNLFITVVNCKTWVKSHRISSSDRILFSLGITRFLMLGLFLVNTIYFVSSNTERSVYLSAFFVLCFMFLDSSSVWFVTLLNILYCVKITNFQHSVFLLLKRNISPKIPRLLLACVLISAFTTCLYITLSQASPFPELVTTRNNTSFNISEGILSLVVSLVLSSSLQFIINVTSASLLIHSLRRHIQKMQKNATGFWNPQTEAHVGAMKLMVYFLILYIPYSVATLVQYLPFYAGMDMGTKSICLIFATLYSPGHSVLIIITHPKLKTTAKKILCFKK
Sequence of hT2R51 (P59533 whole entry): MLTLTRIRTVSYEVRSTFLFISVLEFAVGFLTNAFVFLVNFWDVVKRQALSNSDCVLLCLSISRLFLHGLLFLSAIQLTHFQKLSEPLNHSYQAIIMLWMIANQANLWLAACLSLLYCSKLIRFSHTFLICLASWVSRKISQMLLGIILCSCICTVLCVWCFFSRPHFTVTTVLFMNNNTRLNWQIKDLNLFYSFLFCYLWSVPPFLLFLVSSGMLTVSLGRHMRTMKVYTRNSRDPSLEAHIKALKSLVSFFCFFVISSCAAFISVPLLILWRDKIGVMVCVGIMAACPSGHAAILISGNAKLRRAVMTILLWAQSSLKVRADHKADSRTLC
Sequence of hT2R61 (P59537 whole entry): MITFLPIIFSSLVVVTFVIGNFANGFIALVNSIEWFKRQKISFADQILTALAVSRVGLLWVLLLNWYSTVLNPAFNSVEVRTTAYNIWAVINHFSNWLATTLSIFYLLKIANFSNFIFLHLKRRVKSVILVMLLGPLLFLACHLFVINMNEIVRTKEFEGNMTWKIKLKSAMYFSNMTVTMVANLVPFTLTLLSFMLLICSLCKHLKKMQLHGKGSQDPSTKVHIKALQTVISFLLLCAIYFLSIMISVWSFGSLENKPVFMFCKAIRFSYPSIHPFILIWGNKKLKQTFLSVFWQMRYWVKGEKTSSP
Sequence of hT2R64 (P59538 whole entry): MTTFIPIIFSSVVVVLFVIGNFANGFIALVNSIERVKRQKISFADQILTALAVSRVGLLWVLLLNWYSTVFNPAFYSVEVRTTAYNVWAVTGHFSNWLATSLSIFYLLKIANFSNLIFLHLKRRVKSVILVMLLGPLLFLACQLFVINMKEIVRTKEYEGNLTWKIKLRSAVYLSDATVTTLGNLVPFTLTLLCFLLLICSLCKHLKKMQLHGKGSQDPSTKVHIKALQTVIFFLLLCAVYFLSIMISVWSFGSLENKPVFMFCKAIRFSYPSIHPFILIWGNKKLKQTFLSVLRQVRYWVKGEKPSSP
Sequence of hT2R75 (P59540 whole entry): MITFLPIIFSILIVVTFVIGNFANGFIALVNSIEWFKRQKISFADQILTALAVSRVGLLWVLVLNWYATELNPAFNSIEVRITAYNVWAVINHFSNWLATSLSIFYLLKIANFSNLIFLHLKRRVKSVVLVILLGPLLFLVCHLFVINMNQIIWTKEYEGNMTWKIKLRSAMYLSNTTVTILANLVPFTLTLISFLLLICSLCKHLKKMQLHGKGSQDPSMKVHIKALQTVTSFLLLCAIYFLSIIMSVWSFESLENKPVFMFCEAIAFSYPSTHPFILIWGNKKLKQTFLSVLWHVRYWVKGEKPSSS

SMILES | inhibition at 25 µM (hT2R61) [%] | screening result against bitter receptor 63 (hT2R63) | inhibition at 25 µM (hT2R4) [%] | screening result against bitter receptor 65 (hT2R65) | inhibition at 25 µM (hT2R64) [%] | inhibition at 25 µM (hT2R5) [%] | inhibition at 25 µM (hT2R14 [2]) [%] | inhibition at 25 µM (hT2R75) [%] | inhibition at 25 µM (hT2R7) [%] | inhibition at 25 µM (hT2R16) [%] | screening result against bitter receptor 55 (hT2R55) | inhibition at 25 µM (hT2R9) [%] | inhibition at 25 µM (hT2R3) [%] | inhibition at 25 µM (hT2R10) [%] | inhibition at 25 µM (hT2R71) [%] | screening result against bitter receptor 44 (hT2R44) | screening result against bitter receptor 54 (hT2R54) | inhibition at 25 µM (hT2R51) [%] | screening result against bitter receptor 67 (hT2R67) | further results
COc1ccccc1CN(Cc1ccc(C(=O)O)cc1)S(=O)(=O)c1ccccc1 [Example 5-100, 4-((N-(2-methoxybenzyl)phenylsulfonamido)methyl) benzoic acid] | 60 to 80 | + (20% to 40% inhibition = +) | 40 to 60 | ++ (40% to 60% inhibition = ++) | > 80 | 20 to 40 | 40 to 60 | 20 to 40 | 20 to 40 | 20 to 40 | +++ (60% to 80% inhibition = +++) | 20 to 40 | 20 to 40 | 20 to 40 | 60 to 80 | +++ (60% to 80% inhibition = +++) | + (20% to 40% inhibition = +) | – | – | IC50 (hT2R14 [1]; Table C, read-out: hT2R14 IC50): 1290 nM
Cc1ccccc1CN(Cc1ccccc1)S(=O)(=O)c1ccc(C(=O)O)cc1 [Example 5-80, 4-(N-benzyl-N-(2-methylbenzyl)sulfamoyl)benzoic acid] | 60 to 80 | ++++ (80% or greater inhibition = ++++) | – | ++ (40% to 60% inhibition = ++) | 60 to 80 | 20 to 40 | > 80 | 20 to 40 | 20 to 40 | 20 to 40 | +++ (60% to 80% inhibition = +++) | 20 to 40 | 40 to 60 | 20 to 40 | 60 to 80 | + (20% to 40% inhibition = +) | + (20% to 40% inhibition = +) | 40 to 60 | + (20% to 40% inhibition = +) | –
COc1ccc(CN(Cc2ccccc2C#N)S(=O)(=O)c2ccc(C(=O)O)cc2)cc1 [Example 5-25, 4-(N-(2-cyanobenzyl)-N-(4-methoxybenzyl)sulfamoyl)benzoic acid] | – | – | 20 to 40 | ++++ (80% or greater inhibition = ++++) | – | 40 to 60 | > 80 | – | 40 to 60 | 40 to 60 | +++ (60% to 80% inhibition = +++) | 20 to 40 | 60 to 80 | 60 to 80 | – | +++ (60% to 80% inhibition = +++) | +++ (60% to 80% inhibition = +++) | 20 to 40 | ++ (40% to 60% inhibition = ++) | IC50 (hT2R14 [1]; read-out: IC50 on hT2R14 bitter receptor): 4610 nM
